# Measurements as given in PubChem BioAssay (NCI).
#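 All cell lines were grown in 96-well plates and treated with compound for 48 hours. The concentration for 50% growth inhibition is given as GI50. The concentration for full growth arrest is given as TGI.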
# Tests used:
# Assay in all cases: NCI-60 cell line screen, 48 h
# [1] = system: HT29 colon
# [2] = system: SK-OV-3 ovarian
# [3] = system: NCI/ADR-RES ovarian
# [4] = system: SK-MEL-28 melanoma
# [5] = system: SW-620 colon
# [6] = system: 786-0 renal
# [7] = system: A549 NSCLC
# [8] = system: UACC-62 melanoma
# [9] = system: NCI-H23 lung
# [10] = system: MDA-MB-435
# [11] = system: HOP-62 NSCLC
# [12] = system: OVCAR-5 ovarian
# [13] = system: MOLT-4 leukemia
# [14] = system: A498 renal
# [15] = system: MALME-3M melanoma
# [16] = system: CAKI-1 renal
structure (smiles),measurement,setting,value
CC(C)(C)[Si](C)(C)OC1/C(=C/C#N)C(n2ccc(=O)[nH]c2=O)OC1CO (stereo not given),TGI,[1],> 100 µM
same,TGI,[2],> 100 µM
same,TGI,[3],> 100 µM
same,TGI,[4],> 100 µM
same,TGI,[5],> 100 µM
same,TGI,[6],> 100 µM
same,TGI,[7],> 100 µM
same,TGI,[8],> 100 µM
same,TGI,[9],> 100 µM
same,TGI,[10],> 100 µM
same,TGI,[11],> 100 µM
same,TGI,[12],> 100 µM
same,TGI,[13],> 100 µM
same,TGI,[14],> 100 µM
same,TGI,[15],> 100 µM
same,TGI,[16],> 100 µM
COc1ccc(C(=O)/C=C/c2ccncc2)cc1OC,TGI,[1],21.7 µM
same,TGI,[2],30.9 µM
same,TGI,[3],42.7 µM
same,TGI,[4],31.7 µM
same,TGI,[6],23.5 µM
same,TGI,[7],29.3 µM
same,TGI,[8],30 µM
same,TGI,[9],22.7 µM
same,TGI,[10],28.1 µM
same,TGI,[11],29.9 µM
same,TGI,[12],27.3 µM
same,TGI,[13],86.7 µM
same,TGI,[14],30.9 µM
same,TGI,[15],32.5 µM
same,TGI,[16],29.2 µM
CCOC(=O)C1=C(N)Oc2ccc(Br)cc2C1C(C#N)C(=O)OCC (stereo not given),TGI,[2],47.1 µM
same,TGI,[3],41 µM
same,TGI,[4],32.4 µM
same,TGI,[5],43.2 µM
same,TGI,[6],70.1 µM
same,TGI,[7],70.5 µM
same,TGI,[8],83.5 µM
same,TGI,[9],47.3 µM
same,TGI,[10],37.9 µM
same,TGI,[11],> 100 µM
same,TGI,[12],66.3 µM
same,TGI,[13],90.9 µM
same,TGI,[14],> 100 µM
same,TGI,[15],41 µM
same,TGI,[16],> 100 µM
Cc1ccc(-c2c3c(n(C4OC(CO)C(O)C(O)C4O)c(=S)c2C#N)CC(C)(C)CC3=O)cc1 (stereo not given),TGI,[1],> 100 µM
same,TGI,[3],> 100 µM
same,TGI,[4],> 100 µM
same,TGI,[5],> 100 µM
same,TGI,[6],> 100 µM
same,TGI,[7],> 100 µM
same,TGI,[8],> 100 µM
same,TGI,[9],> 100 µM
same,TGI,[10],> 100 µM
same,TGI,[11],> 100 µM
same,TGI,[12],> 100 µM
same,TGI,[13],> 100 µM
same,TGI,[14],> 100 µM
same,TGI,[15],> 100 µM
same,TGI,[16],> 100 µM
N#CC1(C#N)C2CCCCC23OC(=N)C1(C#N)C(c1ccccc1)O3 (stereo not given),TGI,[1],60.2 µM
same,TGI,[2],> 100 µM
same,TGI,[3],> 100 µM
same,TGI,[5],> 100 µM
same,TGI,[6],33.7 µM
same,TGI,[7],> 100 µM
same,TGI,[8],49.4 µM
same,TGI,[9],> 100 µM
same,TGI,[10],83.6 µM
same,TGI,[12],50.6 µM
same,TGI,[13],> 100 µM
same,TGI,[14],48.9 µM
same,TGI,[15],34.5 µM
same,TGI,[16],24.5 µM
Cn1c(=O)c2c(no[n+]2[O-])c2ccccc21,TGI,[1],37.2 µM
same,TGI,[2],77 µM
same,TGI,[3],47.3 µM
same,TGI,[5],41.2 µM
same,TGI,[6],39.1 µM
same,TGI,[7],> 100 µM
same,TGI,[8],31.8 µM
same,TGI,[9],34.8 µM
same,TGI,[10],68.5 µM
same,TGI,[11],35.9 µM
same,TGI,[13],44.4 µM
same,TGI,[14],70.2 µM
same,TGI,[15],29 µM
same,TGI,[16],32.4 µM
CCOC(=O)c1ccc(C(=O)/C(C#N)=C2\CCCN2C)[nH]1,TGI,[1],> 100 µM
same,TGI,[3],> 100 µM
same,TGI,[4],> 100 µM
same,TGI,[5],> 100 µM
same,TGI,[6],> 100 µM
same,TGI,[7],> 100 µM
same,TGI,[8],> 100 µM
same,TGI,[9],> 100 µM
same,TGI,[10],> 100 µM
same,TGI,[11],> 100 µM
same,TGI,[12],> 100 µM
same,TGI,[13],> 100 µM
same,TGI,[14],> 100 µM
same,TGI,[15],> 100 µM
same,TGI,[16],> 100 µM
Cc1c(CNc2ccc(C(=O)NC(CC(=O)O)C(=O)O)cc2)ccc2nc(N)nc(N)c12 (stereo not given),TGI,[1],> 1000 µM
same,TGI,[3],> 1000 µM
same,TGI,[5],> 1000 µM
same,TGI,[6],> 1000 µM
same,TGI,[7],> 1000 µM
same,TGI,[8],> 1000 µM
same,TGI,[9],> 1000 µM
same,TGI,[10],> 1000 µM
same,TGI,[11],> 1000 µM
same,TGI,[12],> 1000 µM
same,TGI,[13],> 1000 µM
same,TGI,[14],> 1000 µM
same,GI50,[15],< 0.01 µM
same,TGI,[15],> 1000 µM
same,GI50,[16],48.6 µM
same,TGI,[16],> 1000 µM
CC12CC(C#N)(C#N)C(C#N)(CO1)C(=N)O2 (stereo not given),TGI,[1],> 100 µM
same,TGI,[2],> 100 µM
same,TGI,[3],> 100 µM
same,TGI,[4],> 100 µM
same,TGI,[5],> 100 µM
same,TGI,[6],> 100 µM
same,TGI,[7],> 100 µM
same,TGI,[8],> 100 µM
same,TGI,[9],> 100 µM
same,TGI,[10],> 100 µM
same,TGI,[12],> 100 µM
same,TGI,[13],> 100 µM
same,TGI,[14],> 100 µM
same,TGI,[15],90.8 µM
same,TGI,[16],> 100 µM
Cn1c(N)c2c3c(sc2nc1=O)CCCC3,TGI,[1],> 75 µM
same,TGI,[3],> 75 µM
same,TGI,[4],> 75 µM
same,TGI,[5],> 75 µM
same,TGI,[6],> 75 µM
same,TGI,[8],> 75 µM
same,TGI,[9],> 75 µM
same,TGI,[10],> 75 µM
same,TGI,[11],> 75 µM
same,TGI,[12],> 75 µM
same,TGI,[13],> 75 µM
same,TGI,[14],> 75 µM
same,TGI,[15],> 75 µM
same,TGI,[16],> 75 µM
CC(=C\c1ccccc1)/C=C(\C#N)C(N)=O,TGI,[1],> 10 µM
same,TGI,[2],> 10 µM
same,TGI,[3],> 10 µM
same,TGI,[4],> 10 µM
same,TGI,[5],> 10 µM
same,TGI,[6],> 10 µM
same,TGI,[10],> 10 µM
same,TGI,[11],> 10 µM
same,TGI,[12],> 10 µM
same,TGI,[14],> 10 µM
same,TGI,[15],> 10 µM
same,TGI,[16],> 10 µM
O=C1/C(=C/c2ccccc2)NC(=S)N1CN1CCOCC1,TGI,[1],> 100 µM
same,TGI,[2],> 100 µM
same,TGI,[3],> 100 µM
same,TGI,[4],> 100 µM
same,TGI,[5],> 100 µM
same,TGI,[6],> 100 µM
same,TGI,[7],> 100 µM
same,TGI,[8],> 100 µM
same,TGI,[9],> 100 µM
same,TGI,[10],> 100 µM
same,TGI,[11],> 100 µM
same,TGI,[12],> 100 µM
same,TGI,[13],> 100 µM
same,TGI,[14],> 100 µM
same,TGI,[15],> 100 µM
CC1C[C@]2(C)C(=O)Nc3ccccc3[C@@H]2Nc2ccccc21 (stereo not given in full),TGI,[1],30 µM
same,TGI,[3],46.5 µM
same,TGI,[4],95.5 µM
same,TGI,[5],> 100 µM
same,TGI,[6],45.2 µM
same,TGI,[7],> 100 µM
same,TGI,[8],45.3 µM
same,TGI,[9],54.8 µM
same,TGI,[10],55.5 µM
same,TGI,[11],57.4 µM
same,TGI,[12],> 100 µM
same,TGI,[13],59.2 µM
same,TGI,[14],53.4 µM
same,TGI,[15],62 µM
same,TGI,[16],74.3 µM
CCN(CC)C(=S)SS(=O)(=O)c1ccc(F)cc1,TGI,[1],53.9 µM
same,TGI,[2],> 100 µM
same,TGI,[3],> 100 µM
same,TGI,[4],30.5 µM
same,TGI,[5],53.7 µM
same,TGI,[6],> 100 µM
same,TGI,[8],> 100 µM
same,TGI,[9],> 100 µM
same,TGI,[10],> 100 µM
same,TGI,[11],> 100 µM
same,TGI,[12],> 100 µM
same,TGI,[14],> 100 µM
same,TGI,[15],68.4 µM
same,TGI,[16],> 100 µM
COc1ccc(OC)c(N2C(=O)CSC2c2cc(OC)c(OC)c(OC)c2)c1 (stereo not given),TGI,[1],> 100 µM
same,TGI,[2],> 100 µM
same,TGI,[3],> 100 µM
same,TGI,[4],> 100 µM
same,TGI,[5],> 100 µM
same,TGI,[6],> 100 µM
same,TGI,[7],> 100 µM
same,TGI,[8],> 100 µM
same,TGI,[9],> 100 µM
same,TGI,[10],86 µM
same,TGI,[12],> 100 µM
same,TGI,[13],> 100 µM
same,TGI,[14],> 100 µM
same,TGI,[15],> 100 µM
same,TGI,[16],> 100 µM
